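Grown in 96-well plates, cells were treated for 48 hours with each compound at five concentrations. Insufficient inhibition: endpoint recorded as highest concentration tested. The concentration for full growth arrest is given as TGI.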
Key:
Assay in all cases: NCI-60 cell line screen, 48 h
OVCAR-5 ovarian = test system: OVCAR-5 ovarian
XF 498 CNS = test system: XF 498 CNS
SNB-78 CNS = test system: SNB-78 CNS
LXFL 529 NSCLC = test system: LXFL 529 NSCLC
HOP-18 NSCLC = test system: HOP-18 NSCLC
TK-10 renal = test system: TK-10 renal
ACHN renal = test system: ACHN renal
DLD-1 colon = test system: DLD-1 colon
DMS 114 small cell lung = test system: DMS 114 small cell lung
KM20L2 colon = test system: KM20L2 colon
DMS 273 small cell lung = test system: DMS 273 small cell lung
RXF-631 renal = test system: RXF-631 renal
NCI-H23 lung = test system: NCI-H23 lung
K-562 leukemia = test system: K-562 leukemia
SN12C renal = test system: SN12C renal
M19-MEL melanoma = test system: M19-MEL melanoma

Row | Structure (SMILES) | TGI (OVCAR-5 ovarian) [µM] | TGI (XF 498 CNS) [µM] | TGI (SNB-78 CNS) [µM] | TGI (LXFL 529 NSCLC) [µM] | TGI (HOP-18 NSCLC) [µM] | TGI (TK-10 renal) [µM] | TGI (ACHN renal) [µM] | TGI (DLD-1 colon) [µM] | TGI (DMS 114 small cell lung) [µM] | TGI (KM20L2 colon) [µM] | TGI (DMS 273 small cell lung) [µM] | TGI (RXF-631 renal) [µM] | TGI (NCI-H23 lung) [µM] | TGI (K-562 leukemia) [µM] | TGI (SN12C renal) [µM] | TGI (M19-MEL melanoma) [µM]
1 | Cc1ccccc1NC(=O)CC(=O)n1nc(-c2ccccc2)c(N=Nc2ccc([N+](=O)[O-])cc2)c1-c1ccccc1 | > 100 | 51.7 | > 100 | > 100 | 87.8 | > 100 | 44.5 | > 100 | 30.3 | 32.8 | 49.4 | 41.6 | > 100 | 48.9 | 58.4 | –
2 | COC1=CC(=O)C2C(C1=O)[C@@H]1c3ccccc3OC[C@H]21 (stereo partly drawn) | > 100 | – | > 100 | > 100 | > 100 | > 100 | > 100 | > 100 | > 100 | > 100 | > 100 | – | > 100 | > 100 | – | –
3 | Cc1ccc(C(=O)C(C)N)cc1C (stereo not drawn) | – | > 100 | – | > 100 | – | > 100 | > 100 | > 100 | > 100 | > 100 | – | > 100 | > 100 | > 100 | > 100 | > 100
4 | C#CC1(O)CC(c2ccccc2)N(C)C(c2ccccc2)C1 (stereo not drawn) | > 100 | – | > 100 | > 100 | – | > 100 | > 100 | – | > 100 | > 100 | > 100 | > 100 | > 100 | > 100 | > 100 | > 100
5 | Cc1nc2c(s/c(=N\N)n2-c2ccccc2)c(=O)n1C | > 100 | > 100 | > 100 | > 100 | – | > 100 | > 100 | – | > 100 | > 100 | > 100 | – | > 100 | > 100 | > 100 | > 100
6 | O=c1[nH]c(Br)nc2c(N3CCCCC3)c[nH]c12 | > 100 | > 100 | > 100 | > 100 | > 100 | > 100 | > 100 | > 100 | > 100 | > 100 | > 100 | – | > 100 | > 100 | > 100 | > 100
7 | O=C(CC(C(=O)c1cccs1)c1ccccc1)c1ccccc1O (stereo not drawn) | > 100 | – | – | – | – | > 74.5 | > 44.8 | – | – | – | – | – | > 100 | 46.6 | > 100 | –
8 | O=c1cc(-c2cccc(Br)c2)[nH]c2cc3c(cc12)OCO3 | > 100 | 14.5 | 20.5 | 18.6 | 46.7 | 28.6 | 24.4 | 31.2 | 11 | – | 22.4 | – | 12.8 | > 100 | > 55.9 | > 100
9 | CCCNC(=O)c1cc(NC(=O)c2cc(NC(=O)CCS(=O)(=O)OC)cn2C)cn1C | > 100 | – | – | – | – | > 100 | > 100 | – | – | – | – | – | 40.7 | > 100 | 29.7 | –
10 | C=C(C)COC(=O)COCC(=O)OCC(=C)C | > 100 | – | – | – | – | > 100 | > 100 | – | – | – | – | – | > 100 | > 100 | > 100 | –
11 | C[C@]12CC[C@H]3[C@@H](CCC4=CC(=O)CC[C@@]43C)[C@@H]1CC[C@@H]2OC(=O)c1cccc2c(=O)c3ccccc3[nH]c12 | > 100 | – | – | – | – | > 100 | > 100 | – | – | – | – | – | > 100 | 80 | > 100 | –
12 | N#Cc1c(Nc2ccccc2)[n+]([O-])c2ccc(Cl)cc2[n+]1[O-] | > 100 | – | – | – | – | 49.2 | 68.5 | – | – | – | – | – | 17.4 | > 22.6 | > 100 | –
13 | CCCCn1c2c(n(CCCC)c1=[Se])-c1c(n(CCCC)c(=[Se])n1CCCC)S[Se][Se]S2 | 47.6 | – | – | – | – | 43.3 | 30.9 | – | – | – | – | – | 70.4 | > 66.9 | 65 | –
14 | CC(C)=C=CC(C)(C)NS(=O)(=O)NC(C)(C)C=C=C(C)C | > 100 | – | – | – | – | > 100 | > 100 | – | – | – | – | – | > 100 | > 100 | > 100 | –
15 | CCCC(=O)Oc1cc(OC(=O)CCC)c2c(C)cc(=O)oc2c1 | > 100 | – | – | – | – | > 100 | > 100 | – | – | – | – | – | > 100 | > 100 | > 100 | –
16 | Nc1nc2c(ncn2CC(CO)CC(c2ccccc2)P(=O)(O)O)c(=O)[nH]1 (stereo not drawn) | > 100 | > 100 | > 100 | > 100 | > 100 | > 100 | > 100 | > 100 | > 100 | > 100 | > 100 | – | > 100 | > 100 | > 100 | > 100
17 | COc1ccccc1NC1=NCC(C)S1 (stereo not drawn) | > 100 | – | – | – | – | > 100 | > 100 | – | – | – | – | – | > 100 | > 100 | > 100 | –
18 | CCOC(=O)C1C(=O)c2cccc(OC)c2C2COC(=O)N12 (stereo not drawn) | > 100 | > 100 | – | > 100 | > 100 | > 100 | > 100 | > 100 | > 100 | > 100 | > 100 | > 100 | > 100 | > 100 | > 100 | > 100

Reference: PubChem BioAssay (NCI)
